Results from PubChem BioAssay (NCI).
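Compound exposure: 48 hours, 5 concentrations, 96-well plates. TGI: concentration producing complete growth inhibition.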

Columns and labels:
Assay in all cases: inhibition of tumour cell growth, NCI panel, 48 h
DMS 273 small cell lung = tested on: DMS 273 small cell lung
NCI-H522 lung = tested on: NCI-H522 lung
OVCAR-4 ovarian = tested on: OVCAR-4 ovarian
786-0 renal = tested on: 786-0 renal
NCI-H226 lung = tested on: NCI-H226 lung
HCT-116 colon = tested on: HCT-116 colon
K-562 leukemia = tested on: K-562 leukemia
M14 melanoma = tested on: M14 melanoma
SN12C renal = tested on: SN12C renal
OVCAR-3 ovarian = tested on: OVCAR-3 ovarian
LOX IMVI melanoma = tested on: LOX IMVI melanoma
OVCAR-5 ovarian = tested on: OVCAR-5 ovarian
SNB-78 CNS = tested on: SNB-78 CNS
U251 CNS = tested on: U251 CNS
HCC-2998 colon = tested on: HCC-2998 colon
UO-31 renal = tested on: UO-31 renal
KM20L2 colon = tested on: KM20L2 colon
MALME-3M melanoma = tested on: MALME-3M melanoma
EKVX NSCLC = tested on: EKVX NSCLC
SK-MEL-5 melanoma = tested on: SK-MEL-5 melanoma
SK-MEL-28 melanoma = tested on: SK-MEL-28 melanoma
UACC-62 melanoma = tested on: UACC-62 melanoma
IGROV1 ovarian = tested on: IGROV1 ovarian
UACC-257 melanoma = tested on: UACC-257 melanoma
HOP-18 NSCLC = tested on: HOP-18 NSCLC
RXF 393 renal = tested on: RXF 393 renal
SF-539 CNS = tested on: SF-539 CNS
SW-620 colon = tested on: SW-620 colon
SNB-19 CNS = tested on: SNB-19 CNS
A498 renal = tested on: A498 renal
M19-MEL melanoma = tested on: M19-MEL melanoma
CCRF-CEM leukemia = tested on: CCRF-CEM leukemia
NCI-H460 lung = tested on: NCI-H460 lung
SF-295 CNS = tested on: SF-295 CNS
TK-10 renal = tested on: TK-10 renal
NCI-H23 lung = tested on: NCI-H23 lung
HL-60(TB) leukemia = tested on: HL-60(TB) leukemia
OVCAR-8 ovarian = tested on: OVCAR-8 ovarian
ACHN renal = tested on: ACHN renal
SF-268 CNS = tested on: SF-268 CNS
HCT-15 colon = tested on: HCT-15 colon
MOLT-4 leukemia = tested on: MOLT-4 leukemia
HT29 colon = tested on: HT29 colon
LXFL 529 NSCLC = tested on: LXFL 529 NSCLC
SK-MEL-2 melanoma = tested on: SK-MEL-2 melanoma
HOP-92 NSCLC = tested on: HOP-92 NSCLC
DLD-1 colon = tested on: DLD-1 colon
A549 NSCLC = tested on: A549 NSCLC
RPMI-8226 leukemia = tested on: RPMI-8226 leukemia
HOP-62 NSCLC = tested on: HOP-62 NSCLC
SR leukemia = tested on: SR leukemia
XF 498 CNS = tested on: XF 498 CNS
SNB-75 CNS = tested on: SNB-75 CNS
DMS 114 small cell lung = tested on: DMS 114 small cell lung
SK-OV-3 ovarian = tested on: SK-OV-3 ovarian
KM12 colon = tested on: KM12 colon
COLO 205 colon = tested on: COLO 205 colon
CAKI-1 renal = tested on: CAKI-1 renal

## CCCCc1c2c(nc3c1CCCC3=O)C(=O)CCC2
DMS 273 small cell lung
  TGI: > 100 µM
NCI-H522 lung
  TGI: > 100 µM
OVCAR-4 ovarian
  TGI: > 100 µM
786-0 renal
  TGI: > 100 µM
NCI-H226 lung
  TGI: > 100 µM
HCT-116 colon
  TGI: > 100 µM
K-562 leukemia
  TGI: > 100 µM
M14 melanoma
  TGI: > 100 µM
SN12C renal
  TGI: > 100 µM
OVCAR-3 ovarian
  TGI: > 100 µM
LOX IMVI melanoma
  TGI: > 100 µM
OVCAR-5 ovarian
  TGI: > 100 µM
SNB-78 CNS
  TGI: > 100 µM
U251 CNS
  TGI: > 100 µM
HCC-2998 colon
  TGI: > 100 µM
UO-31 renal
  TGI: > 100 µM
KM20L2 colon
  TGI: > 100 µM
MALME-3M melanoma
  TGI: > 100 µM
EKVX NSCLC
  TGI: > 100 µM
SK-MEL-5 melanoma
  TGI: > 100 µM
SK-MEL-28 melanoma
  TGI: > 100 µM
UACC-62 melanoma
  TGI: > 100 µM
IGROV1 ovarian
  TGI: > 100 µM
UACC-257 melanoma
  TGI: > 100 µM
HOP-18 NSCLC
  TGI: > 100 µM
RXF 393 renal
  TGI: > 100 µM
SF-539 CNS
  TGI: > 100 µM
SW-620 colon
  TGI: > 100 µM
SNB-19 CNS
  TGI: > 100 µM
A498 renal
  TGI: > 100 µM
M19-MEL melanoma
  TGI: > 100 µM
CCRF-CEM leukemia
  TGI: > 100 µM
NCI-H460 lung
  TGI: > 100 µM
SF-295 CNS
  TGI: > 100 µM
TK-10 renal
  TGI: > 100 µM
NCI-H23 lung
  TGI: > 100 µM
HL-60(TB) leukemia
  TGI: > 100 µM
OVCAR-8 ovarian
  TGI: > 100 µM
ACHN renal
  TGI: > 100 µM
SF-268 CNS
  TGI: > 100 µM
HCT-15 colon
  TGI: > 100 µM
MOLT-4 leukemia
  TGI: > 100 µM
HT29 colon
  TGI: > 100 µM
LXFL 529 NSCLC
  TGI: > 100 µM
SK-MEL-2 melanoma
  TGI: > 100 µM
HOP-92 NSCLC
  TGI: > 100 µM
DLD-1 colon
  TGI: > 100 µM
A549 NSCLC
  TGI: > 100 µM
RPMI-8226 leukemia
  TGI: > 100 µM
HOP-62 NSCLC
  TGI: > 100 µM
SR leukemia
  TGI: > 100 µM
XF 498 CNS
  TGI: > 100 µM
SNB-75 CNS
  TGI: > 100 µM
DMS 114 small cell lung
  TGI: > 100 µM
SK-OV-3 ovarian
  TGI: > 100 µM
KM12 colon
  TGI: > 100 µM
COLO 205 colon
  TGI: > 100 µM

## COc1nc(NC2OC(COC(C)=O)C(OC(C)=O)C(OC(C)=O)C2OC(C)=O)c2c(OC(C)=O)c(C)c(=O)oc2n1 (stereo not given)
CAKI-1 renal
  TGI: > 100 µM
OVCAR-4 ovarian
  TGI: > 100 µM
786-0 renal
  TGI: > 100 µM
NCI-H226 lung
  TGI: > 100 µM
HCT-116 colon
  TGI: > 100 µM
K-562 leukemia
  TGI: > 100 µM
M14 melanoma
  TGI: > 100 µM
SN12C renal
  TGI: > 100 µM
OVCAR-3 ovarian
  TGI: > 100 µM
LOX IMVI melanoma
  TGI: > 100 µM
OVCAR-5 ovarian
  TGI: > 100 µM
SNB-78 CNS
  TGI: > 100 µM
U251 CNS
  TGI: > 100 µM
HCC-2998 colon
  TGI: > 100 µM
UO-31 renal
  TGI: > 100 µM
KM20L2 colon
  TGI: > 100 µM
MALME-3M melanoma
  TGI: > 100 µM
EKVX NSCLC
  TGI: > 100 µM
SK-MEL-5 melanoma
  TGI: > 100 µM
UACC-62 melanoma
  TGI: > 100 µM
IGROV1 ovarian
  TGI: > 100 µM
UACC-257 melanoma
  TGI: > 100 µM
HOP-18 NSCLC
  TGI: > 100 µM
RXF 393 renal
  TGI: > 100 µM
SF-539 CNS
  TGI: > 100 µM
SW-620 colon
  TGI: > 100 µM
SNB-19 CNS
  TGI: > 100 µM
A498 renal
  TGI: 3.18 µM
M19-MEL melanoma
  TGI: > 100 µM
CCRF-CEM leukemia
  TGI: > 100 µM
NCI-H460 lung
  TGI: 3.15 µM
SF-295 CNS
  TGI: > 100 µM
TK-10 renal
  TGI: > 100 µM
NCI-H23 lung
  TGI: > 100 µM
HL-60(TB) leukemia
  TGI: > 100 µM
OVCAR-8 ovarian
  TGI: > 100 µM
ACHN renal
  TGI: 3.16 µM
HCT-15 colon
  TGI: > 100 µM
MOLT-4 leukemia
  TGI: > 100 µM
HT29 colon
  TGI: > 100 µM
LXFL 529 NSCLC
  TGI: > 100 µM
SK-MEL-2 melanoma
  TGI: > 100 µM
HOP-92 NSCLC
  TGI: > 100 µM
DLD-1 colon
  TGI: > 100 µM
A549 NSCLC
  TGI: > 100 µM
RPMI-8226 leukemia
  TGI: > 100 µM
HOP-62 NSCLC
  TGI: > 100 µM
XF 498 CNS
  TGI: > 100 µM
SNB-75 CNS
  TGI: > 100 µM
DMS 114 small cell lung
  TGI: > 100 µM
SK-OV-3 ovarian
  TGI: > 100 µM
KM12 colon
  TGI: > 100 µM
COLO 205 colon
  TGI: > 100 µM
